Tests used:
Type in all cases: cell-based, human
NK cells [1] = test: CD107a level on NK cells in PBMC stimulated with K562 target cells, flow cytometry (Example 1); conditions: PBMC (NK cell purity 95% or higher) treated with ginsenoside, then K562 target cells; FIG. 1
Protocol: To discover ginsenosides which can affect the cell-killing activity of NK cells, peripheral blood mononuclear cells (PBMC) separated from the blood were treated with 15 different kinds of (C-K, F2, PPD, Rb1, Rb2, Rc, Rd, Rg3, Rh2, F1, PPT, Re, Rg1, Rg2, and Rh1) ginsenosides, and then, the level of CD107a, which is a marker protein representing cell-killing activity and expressed on NK cells, was measured by flow cytometry (FIG. 1).
In particular, for the PBMC, those selected as follows were used. That is, the collected blood samples were transferred into Vacutainer Cell Preparation tubes (sodium heparin; BD Biosciences), centrifuged to recover a buffy coat, lymphocytes and monocyte band, and the recovered buffy coat was washed with PBS and applied to the human NK cell negative selection kit (Miltenyl Biotech) to isolate […].
Additionally, the CD107a level was measured as follows. […] Then, the NK cells were isolated by performing flow cytometry analysis using anti-CD3 antibody and anti-CD56 antibody, and the NK cells were immunostained using anti-CD107a antibody and the level of CD107a was measured.

NK cells [2] = test: Intracellular IFN-γ expression by NK cells in PBMC stimulated with mutants of KCL-22 cells, flow cytometry (Example 2); conditions: PBMC treated with ginsenoside, stimulated with equal number of mutants of KCL-22 cells, Brefeldin A; FIG. 2
Protocol: The 7 different kinds of ginsenosides discovered in Example 1 were treated and those ginsenosides which increased the expression level of the immune-stimulating factor (IFN-γ) by NK cells were selected (FIG. 2). In particular, the expression level of IFN-γ was measured as follows. That is, the PBMC samples isolated in Example 1 were treated with each ginsenoside, stimulated by treating with the equal number of target cells (mutants of KCL-22 cells), and then treated with Brefeldin A (GolgiPlug; BD Biosciences). Thereafter, a flow cytometry analysis was performed using fluochrome-conjugated anti-CD3 antibody and anti-CD56 antibody to identify NK cells present in PBMC, and then treated with Cytofix/Cytoperm (BD Biosicences) for perforation, and immunostained with fluochrome-conjugated anti-IFN-γ antibody to measure the intracellular level of IFN-γ(FIG. 2).

[3] = test system: Gleevec-resistant mutants of KCL-22 cells; test: Cell-killing activity of NK cells against europium-labeled target cells (Example 5); conditions: E:T ratios 0.625:1, 1.25:1, 2.5:1, 5:1; DMSO control; FIGS. 5A and 5B
Protocol: The NK cells isolated in Example 1 was treated with ginsenoside F1 or ginsenoside Rg3, and incubated with target cells (Gleevec-resistant mutants of KCL-22 cells) labeled with an europium fluorescent dye at various E:T ratios (the ratio between the number of NK cells:the number of target cells=0.625:1, 1.25:1, 2.5:1, or 5:1), and thereby breaking down the target cells with the NK cells activated by the ginsenoside, and the europium fluorescent dye labeled to the target cells was released as a reaction solution. Upon completion of the reaction, the level of the europium fluorescent dye contained in the reaction solution was measured, and the cell-killing activity of the NK cells was compared (FIGS. 5A and 5B). In particular, NK cells treated with DMSO, instead of ginsenosides, were used as control group.

NK cells [4] = test: Concentration-dependent change of CD107a level on NK cells (Example 4); conditions: NK cells isolated from PBMC, 5 μM to 20 μM; DMSO control; FIGS. 4A and 4B
Protocol: NK cells isolated from PBMC were treated with ginsenoside F1 (which increases the selected CD107a level to the highest level) and Rg3 (which increases the selected CD107a level to the 2nd highest level), selected from Example 3, at various concentrations (5 μM to 20 μM), and the change in the CD107a level was measured (FIGS. 4A and 4B). In particular, NK cells treated with DMSO, instead of ginsenosides, were used as a control group.

NK cells [5] = test: CD107a level on primary NK cells incubated with mutants of KCL-22 cells (Example 3); conditions: NK cells isolated from PBMC, incubated with mutants of KCL-22 cells (Gleevec-resistant leukemia cells); DMSO control; FIG. 3
Protocol: An attempt was made to select ginsenosides which induce the increase of the CD107a level on primary NK cells among the 4 different kinds of ginsenosides (Rg3, Rh2, F1, and Rg1) selected in Example 2.
Specifically, the NK cells isolated from the PBMC were activated by treating with the 4 different kinds of ginsenosides, then incubated with mutants of KCL-22 cells (i.e., Gleevec-resistant leukemia cells), and the level of CD107a on NK cells was measured and compared (FIG. 3). In particular, NK cells treated with DMSO, instead of ginsenosides, were used as a control group.

Row | Compound | level of CD107a expression on NK cells (NK cells [1]) | expression level of IFN-γ by NK cells (NK cells [2]) | cell-killing activity of NK cells (europium fluorescent dye release) [3] | change in the CD107a level on NK cells by concentration (NK cells [4]) | level of CD107a on primary NK cells (rank among the 4 ginsenosides) (NK cells [5])
1 | CC(C)=CCC[C@](C)(O[C@@H]1O[C@H](CO)[C@@H](O)[C@H](O)[C@H]1O)[C@H]1CC[C@]2(C)[C@@H]1[C@H](O)C[C@@H]1[C@@]3(C)CC[C@H](O[C@@H]4O[C@H](CO)[C@@H](O)[C@H](O)[C@H]4O)C(C)(C)[C@@H]3CC[C@]12C [F2] | increase the level of CD107a expression on NK cells |  |  |  | 
2 | CC(C)=CCC[C@](C)(O)[C@H]1CC[C@]2(C)[C@@H]1[C@H](O)C[C@@H]1[C@@]3(C)CC[C@H](O)C(C)(C)[C@@H]3[C@@H](O[C@@H]3O[C@H](CO)[C@@H](O)[C@H](O)[C@H]3O[C@@H]3O[C@@H](C)[C@H](O)[C@@H](O)[C@H]3O)C[C@]12C [Rg2] | increase the level of CD107a expression on NK cells |  |  |  | 
3 | CC(C)=CCC[C@](C)(O)[C@H]1CC[C@]2(C)[C@@H]1[C@H](O)C[C@@H]1[C@@]3(C)CC[C@H](O[C@@H]4O[C@H](CO)[C@@H](O)[C@H](O)[C@H]4O[C@@H]4O[C@H](CO)[C@@H](O)[C@H](O)[C@H]4O)C(C)(C)[C@@H]3CC[C@]12C [ginsenoside Rg3, 20(S)-protopanaxadiol-3-0-β-D-glucopyranosyl(1,2)-β-D-glucopyranoside] | increase the level of CD107a expression on NK cells | increased | promote the cell-killing activity of NK cells against mutants of KCL-22 cells | increase the expression levels of CD107a on NK cells in a concentration-dependent manner | 2nd highest
4 | CC(C)=CCC[C@](C)(O[C@@H]1O[C@H](CO)[C@@H](O)[C@H](O)[C@H]1O)[C@H]1CC[C@]2(C)[C@@H]1[C@H](O)C[C@@H]1[C@@]3(C)CC[C@H](O)C(C)(C)[C@@H]3[C@@H](O[C@@H]3O[C@H](CO)[C@@H](O)[C@H](O)[C@H]3O)C[C@]12C [Rg1] | increase the level of CD107a expression on NK cells | increased |  |  | 
5 | CC(C)=CCC[C@](C)(O[C@@H]1O[C@H](CO[C@@H]2O[C@H](CO)[C@@H](O)[C@H](O)[C@H]2O)[C@@H](O)[C@H](O)[C@H]1O)[C@H]1CC[C@]2(C)[C@@H]1[C@H](O)C[C@@H]1[C@@]3(C)CC[C@H](O[C@@H]4O[C@H](CO)[C@@H](O)[C@H](O)[C@H]4O[C@@H]4O[C@H](CO)[C@@H](O)[C@H](O)[C@H]4O)C(C)(C)[C@@H]3CC[C@]12C [Rb1] | increase the level of CD107a expression on NK cells |  |  |  | 
6 | CC(C)=CCC[C@](C)(O)[C@H]1CC[C@]2(C)[C@@H]1[C@H](O)C[C@@H]1[C@@]3(C)CC[C@H](O[C@@H]4O[C@H](CO)[C@@H](O)[C@H](O)[C@H]4O)C(C)(C)[C@@H]3CC[C@]12C [Rh2] | increase the level of CD107a expression on NK cells | increased |  |  | 

Source: patent US10376530B2, “Pharmaceutical composition for preventing or treating gleevec-resistant leukemia containing ginsenoside F1 or ginsenoside Rg3 as an active ingredient” (INTELLIGENT SYNTHETIC BIOLOGY CENTER, priority 2015, dated 2019)
